What was measured:
RAW 264.7 cells = assay: Cell protection assay, Alamar Blue viability after peroxynitrite challenge; assay type: cell-based, murine; details: for protection of cells from PN-mediated injury: PN 500 micromolar, RAW cells, FIG. 9 (H2 TMPyP and ZnTMPyP: data not shown)
Experimental: FIG. 8: Comparison of Ni and Fe Catalyst Protection of RAW Cells from PN(peroxynitrite)-mediated Injury. RAW 264.7 cells were plated at approximately 2×10^5 per well of a 96-well plate. […] Each condition represents the mean of 4 wells ±sem.
FIG. 9: Protection from PN-mediated RAW Cell Injury by Fe Catalysts. Cells were treated with 500 micromolar PN in the presence or the absence of the following catalysts: FeTMPyP, FeTMPS, FeTPPS. Cell viability was monitored as described in the text and figure legends 1, 2 and 3. Values represent the mean of 4 determinations ±sem.
Protocol for Cell Protection Assays using Peroxynitrite Decomposition Catalysts: A cell viability assay was established to rapidly assess the efficacy of peroxynitrite(PN) catalysts in protecting cells from PN25 mediated injury and death. The peroxynitrite challenge consisted of a pulse of synthetic PN added exogenously to cells. In order to better assess the efficacy of PN catalysts in protecting cells from PN-mediated damage, a quantity of peroxynitrite(in 50 mM NaOH) determined to cause maximal injury(100%) was added as an exogenous pulse to each well of cells in the presence or absence of catalyst. The NaOH vehicle was not toxic by itself.
Cells(RAW 264.7 cells or P815 mastocytoma cells; American Type Culture Collection, Rockville, Md.) were plated to confluence on 96-well tissue culture plates. Each well is washed twice with Dulbecco's phosphate buffered saline(DPBS; GIBCO BRL, Grand Island, N.Y.) to remove protein and other serum components which might react with the exogenous peroxynitrite. To each well is then added 200 μl of DPBS. PN is next placed into separate wells at increasing concentrations and cell viability monitored. The dose at which maximal cell death is attained is then utilized for the catalyst protection assessment.
Phosphate-buffered saline (200 uL) containing increasing concentrations of catalyst is next placed into individual wells of cells. The maximal dose of PN is subsequently administered to all wells of cells. After 15 minutes, the medium is removed from each well and the cells are either allowed to recover overnight in Earles minimum essential medium without phenol red and supplemented with 10% fetal bovine serum or alternatively the plate of cells is assayed that day for mitochondrial integrity using the Alamar Blue viability assay(Alamar Biosciences, Inc.; Sacramento, Calif.). In either case, cells are incubated at 37° C. in 5% CO2.
Cell injury is measured as follows. Briefly, 10% Alamar Blue(v/v) in Earles MEM with 10% FBS is added to each well of cells for 1-2h. Cell metabolism of the dye generates a fluorescent product which is directly related to the number of viable cells. Moreover, the production of the fluorescent metabolite is linear for over 2 h. The amount of fluorescent product in 100 μl of conditioned medium from each well of cells is then measured with an IDEXX fluorescent plate reader (gain setting of 1%) at an emission wavelength of 575 nm after exciting at 545 nm. Viability is either given as absolute fluorescent units or as a percent of the value obtained for untreated cells(100%).

[1] = tested on: human aortic endothelial cells; assay: Endothelial cell injury assay (51Cr release), neutrophil-mediated; assay type: cell-based; details: 2 h; TNF/C5a-activated neutrophils; FIG. 7
Experimental: Peroxynitrite catalyst, Fe(TMPyP), was added to neutrophils in the cell injury assay immediately before activation by TNF/C5a. After 2 h, the amount of specific cell injury was assessed by the amount of radiolabel released into the medium. Values represent the average of three replicas +/-SEM. *p<0.01 vs. 0 uM control by Dunnett's t Test.
[…]: Human recombinant tumor necrosis factor-alpha (TNF-a) was obtained from Genzyme Corporation, Cambridge, MA. Human recombinant complement C5a and L-arginine (L-arg) was purchased from Sigma Chemical Company, St. Louis, Mo. Authentic peroxynitrite in 50 mM NaOH was prepared as described above.
Preparation of Neutrophils: Human neutrophils were isolated from peripheral blood of healthy donors (Look, D. C., Rapp, S. R., Keller, B. T., and Holtzman, M. J. Am. J. Physiol., 263, L79-L87 [1992]). […]
Endothelial Cell Injury Assays: The cytotoxic effects of stimulated neutrophils or peroxynitrite on endothelial cells was determined using a ^51 Cr-release assay as described by Moldow (Moldow et. al. Methods Enzymol., 105, 378-385, [1984]). […]
^51 Cr release was determined by aspiration of the supernatant from each well (soluble fraction). […] Both fractions were analyzed by gamma scintillation spectrometry. Results were expressed as percent ^51 Cr release as follows: % release=cpm (soluble+nonadherent/total cpm per well)×100. […]

Compound	protection of cells from PN-mediated injury (RAW 264.7 cells)	inhibition of neutrophil-mediated injury to endothelial cells [1]	protection of RAW 264.7 cells from PN-mediated injury (RAW 264.7 cells; PN 360 micromolar, Alamar Blue, FIG. 8)
CC(=O)[O-].Cc1c(-c2c3nc(c(-c4c(C)c(S(=O)(=O)[O-])c(C)c(S(=O)(=O)[O-])c4C)c4ccc([n-]4)c(-c4c(C)c(S(=O)(=O)[O-])c(C)c(S(=O)(=O)[O-])c4C)c4nc(c(-c5c(C)c(S(=O)(=O)[O-])c(C)c(S(=O)(=O)[O-])c5C)c5ccc2[n-]5)C=C4)C=C3)c(C)c(S(=O)(=O)[O-])c(C)c1S(=O)(=O)[O-].[Fe+3].[Na+].[Na+].[Na+].[Na+].[Na+].[Na+].[Na+].[Na+] [Fe(III)TMPS, Acetato-5,10,15,20-tetrakis(3,5-disulfonatomesityl)porphyrin Iron (III) octasodium salt]	significant protection of cells		
CC(=O)[O-].C[n+]1ccc(-c2c3nc(c(-c4cc[n+](C)cc4)c4ccc([n-]4)c(-c4cc[n+](C)cc4)c4nc(c(-c5cc[n+](C)cc5)c5ccc2[n-]5)C=C4)C=C3)cc1.Cc1ccc(S(=O)(=O)[O-])cc1.Cc1ccc(S(=O)(=O)[O-])cc1.Cc1ccc(S(=O)(=O)[O-])cc1.Cc1ccc(S(=O)(=O)[O-])cc1.[Fe+3] [Fe(III)TMPyP, Acetato (5,10,15,20-tetrakis(N-methyl-4-pyridyl)porphinato) iron (III) tetra-tosylate]	significant protection of cells	Inhibition of neutrophil-mediated injury to human aortic endothelial cells	total protection from PN-mediated injury

— US6245758A, “Methods of use for peroxynitrite decomposition catalysts, pharmaceutical compositions therefor” (priority 1996, dated 2001)
